Here are results for 15 compounds from PubChem BioAssay (NCI).

Some test systems named below: A498 renal; CAKI-1 renal; DU-145 prostate; HL-60(TB) leukemia; HS 578T breast; K-562 leukemia; KM12 colon; OVCAR-4 ovarian; PC-3 prostate; SW-620 colon; UACC-257 melanoma; UACC-62 melanoma; UO-31 renal.
Holding throughout (assay): NCI anticancer screen, dose series, 48 h

Molecules are shown by their SMILES.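 How tested: cells in 96-well plates exposed to compound for 48 hours at five concentrations. GI50 is the concentration that inhibits growth by half. TGI: total growth inhibition.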

As for `CN(C)Cc1cc(C(C)(C)C)ccc1-c1ccc(C(C)(C)C)cc1CN(C)C`, the TGI in the assay on A498 renal, in the assay with CAKI-1 renal, with DU-145 prostate, with HL-60(TB) leukemia, with HS 578T breast and in the assay on K-562 leukemia was over 100 µM in each case. Further, the TGI with KM12 colon, in the assay with OVCAR-4 ovarian, in the assay with PC-3 prostate, in the assay on SW-620 colon, in the assay on UACC-257 melanoma and in the assay with UACC-62 melanoma was over 100 µM each time. Also, the TGI in the assay on UO-31 renal was over 100 µM.

Consider `O=C1O[C@H]2[C@H](O)[C@@H](OC(=O)c3cc(O)c(O)c4c3[C@@H]3C1=CC(=O)C(O)(O)C3(O)O4)[C@H](OC(=O)c1cc(O)c(O)c(O)c1)O[C@@H]2CO` (stereo partly specified), for which the TGI in the assay on A498 renal, with CAKI-1 renal, in the assay on DU-145 prostate, in the assay with HL-60(TB) leukemia, with HS 578T breast and in the assay with K-562 leukemia was over 100 µM throughout. Also, the TGI with KM12 colon, with OVCAR-4 ovarian, with PC-3 prostate, with SW-620 colon, in the assay with UACC-257 melanoma and in the assay with UACC-62 melanoma was over 100 µM each time. This compound gave a TGI with UO-31 renal of over 100 µM.

For `Cc1nc2c(nc1C)-c1c(c3c(n1C)C(=O)CCC3)C(=O)C2=O`, the TGI in the assay on A498 renal is 2.59 µM; in the assay on CAKI-1 renal, 0.286 µM; in the assay on DU-145 prostate, 2.44 µM; with HL-60(TB) leukemia, 0.508 µM; in the assay on HS 578T breast, 9.62 µM; with K-562 leukemia, over 100 µM. Moreover, the TGI in the assay on KM12 colon was found to be 5.81 µM; in the assay with OVCAR-4 ovarian, 0.279 µM; in the assay with PC-3 prostate it was 3.14 µM; in the assay on SW-620 colon, 0.534 µM; with UACC-257 melanoma, 2.76 µM; with UACC-62 melanoma it was 1.5 µM. In the assay with UO-31 renal, the TGI is 1.29 µM.

In the case of `CC(C)(C)c1cc2c(O)c(c1)Cc1cc(C(C#N)(Cc3ccc4ccccc4c3)Cc3ccc4ccccc4c3)cc(c1O)Cc1cc(C(C)(C)C)cc(c1O)Cc1cc(C(C#N)(Cc3ccc4ccccc4c3)Cc3ccc4ccccc4c3)cc(c1O)C2`, the TGI in the assay with A498 renal, with CAKI-1 renal, with DU-145 prostate, in the assay with HL-60(TB) leukemia, in the assay on HS 578T breast and in the assay on K-562 leukemia was over 100 µM in each case. The TGI in the assay on KM12 colon, in the assay on OVCAR-4 ovarian, with PC-3 prostate, in the assay with SW-620 colon, in the assay on UACC-257 melanoma and in the assay with UACC-62 melanoma was over 100 µM in each case. In the assay with UO-31 renal, the TGI was over 100 µM.

As to `Cc1ccc2c(n1)C(=O)C=CC2=O`, the TGI is 31.1 µM with A498 renal; 4.54 µM in the assay on CAKI-1 renal; 30.7 µM in the assay with DU-145 prostate; over 22.5 µM with HL-60(TB) leukemia; over 78.5 µM in the assay on HS 578T breast; 18 µM in the assay on K-562 leukemia. Besides, the TGI was found to be 46.2 µM with KM12 colon; 12.8 µM in the assay with OVCAR-4 ovarian; 31.9 µM in the assay on PC-3 prostate; 8.76 µM with SW-620 colon; 14.6 µM with UACC-257 melanoma; 29.2 µM with UACC-62 melanoma. Besides, in the assay on UO-31 renal, the TGI was found to be 10.4 µM.

For the compound `CC1(C)CC(=O)C2=C(C1)NC1=C(C(=O)CC(C)(C)C1)C2c1ccc([N+](=O)[O-])cc1`, the TGI in the assay with A498 renal, in the assay on CAKI-1 renal, in the assay on DU-145 prostate, in the assay on HL-60(TB) leukemia, in the assay with HS 578T breast and with K-562 leukemia was over 100 µM throughout. For the same compound, the TGI in the assay with KM12 colon, in the assay on OVCAR-4 ovarian, in the assay on PC-3 prostate, in the assay with SW-620 colon, in the assay with UACC-257 melanoma and in the assay with UACC-62 melanoma was over 100 µM each time. The TGI in the assay with UO-31 renal was over 100 µM.

As to `O=C(O)Cc1ccc(Oc2nc3ccccc3nc2C(=O)O)cc1`, the TGI in the assay with A498 renal, in the assay on CAKI-1 renal, in the assay with DU-145 prostate, with HL-60(TB) leukemia, with HS 578T breast and in the assay on K-562 leukemia was over 100 µM throughout. Further, the TGI with KM12 colon, with OVCAR-4 ovarian, in the assay with PC-3 prostate, in the assay with SW-620 colon, with UACC-257 melanoma and with UACC-62 melanoma was over 100 µM in each case. This compound also came in with a TGI in the assay on UO-31 renal of over 100 µM.

Consider `C=C(C)C1CC/C(C)=C/CC[C@]2(C)O[C@H]2CC/C(COC(C)=O)=C\[C@@H]1O` (stereo partly specified), for which the TGI in the assay on A498 renal, in the assay with CAKI-1 renal, in the assay with DU-145 prostate, with HL-60(TB) leukemia, with HS 578T breast and in the assay on K-562 leukemia was over 50 µM in each case. In addition, the TGI in the assay on KM12 colon, in the assay on OVCAR-4 ovarian, in the assay with PC-3 prostate, with SW-620 colon, in the assay with UACC-257 melanoma and in the assay with UACC-62 melanoma was over 50 µM throughout. In the assay with UO-31 renal, the TGI is over 50 µM. Further, the GI50 in the assay on HS 578T breast was 8.27 µM.

Regarding `CCCCOC(=O)NC(Nc1cccc(C(F)(F)F)c1)(C(F)(F)F)C(F)(F)F`, the TGI with A498 renal is over 100 µM; in the assay with CAKI-1 renal, over 100 µM; in the assay on DU-145 prostate, over 100 µM; in the assay with HL-60(TB) leukemia, 56.2 µM; with HS 578T breast, over 100 µM; in the assay with K-562 leukemia, over 100 µM. Moreover, the TGI in the assay on KM12 colon, with OVCAR-4 ovarian, in the assay on PC-3 prostate, in the assay with SW-620 colon, in the assay with UACC-257 melanoma and in the assay with UACC-62 melanoma was over 100 µM throughout. For the same compound, the TGI with UO-31 renal was over 100 µM.

As for `CC(C)OP(=O)(OC(C)C)/C(C#N)=C/c1ccco1`, the TGI in the assay on A498 renal, in the assay on CAKI-1 renal, in the assay with DU-145 prostate, in the assay on HL-60(TB) leukemia, with HS 578T breast and in the assay on K-562 leukemia was over 100 µM in each case. In addition, the TGI in the assay with KM12 colon, with OVCAR-4 ovarian, with PC-3 prostate, with SW-620 colon, with UACC-257 melanoma and in the assay on UACC-62 melanoma was over 100 µM in each case. Moreover, the TGI in the assay with UO-31 renal stood at 9.38 µM.

On to `Cc1cccc(CC(Cc2c(C)cccc2C(=O)O)C(=O)O)c1` (stereo unspecified), for which the TGI in the assay on A498 renal, with CAKI-1 renal, in the assay with DU-145 prostate, in the assay on HL-60(TB) leukemia, in the assay with HS 578T breast and in the assay with K-562 leukemia was over 100 µM throughout. In addition, the TGI with KM12 colon was over 100 µM; in the assay with OVCAR-4 ovarian it was over 100 µM; with PC-3 prostate it was over 100 µM; with SW-620 colon, over 100 µM; in the assay on UACC-257 melanoma, over 100 µM; with UACC-62 melanoma, 10.6 µM. This compound registered a TGI in the assay on UO-31 renal of over 100 µM.

Take `Nc1ncc(Cl)c(NCC2(CO)CC(CCc3ccccc3)C2)n1` (stereo unspecified): the TGI with A498 renal, with CAKI-1 renal, in the assay on DU-145 prostate, in the assay on HL-60(TB) leukemia, in the assay on HS 578T breast and in the assay on K-562 leukemia was over 100 µM in each case. Moreover, the TGI in the assay on KM12 colon, in the assay with OVCAR-4 ovarian, in the assay on PC-3 prostate, with SW-620 colon, with UACC-257 melanoma and in the assay with UACC-62 melanoma was over 100 µM each time. Also, in the assay with UO-31 renal, the TGI was over 100 µM.

For `O=C(Nc1c(C(F)(F)F)cc(-c2ccccc2)[nH]c1=O)N1CCOCC1`, the TGI was over 100 µM in the assay with A498 renal; over 100 µM in the assay on CAKI-1 renal; over 100 µM with DU-145 prostate; 79.5 µM in the assay on HL-60(TB) leukemia; over 100 µM in the assay with HS 578T breast; over 100 µM in the assay on K-562 leukemia. The TGI in the assay with KM12 colon, in the assay on OVCAR-4 ovarian, in the assay with PC-3 prostate, in the assay on SW-620 colon, with UACC-257 melanoma and in the assay on UACC-62 melanoma was over 100 µM each time. The compound also gave a TGI with UO-31 renal of over 100 µM.

In the case of `CCCC(=O)O[C@H]1C=C2C[C@@]34SS[C@]5(CC6=C[C@H](OC(C)=O)[C@@H]7O[C@@H]7[C@H]6N5C3=O)C(=O)N4[C@@H]2[C@H]2O[C@H]21`, the TGI in the assay with A498 renal stood at 0.0697 µM; with CAKI-1 renal, 1.09 µM; in the assay on DU-145 prostate it was 0.362 µM; in the assay with HL-60(TB) leukemia, 2.71 µM; in the assay on HS 578T breast it was 18.6 µM; with K-562 leukemia, 5.83 µM. Further, the TGI in the assay on KM12 colon worked out at 2.29 µM; in the assay on OVCAR-4 ovarian, 0.887 µM; in the assay on PC-3 prostate, 0.0611 µM; in the assay on SW-620 colon, 0.671 µM; in the assay with UACC-257 melanoma, 0.0746 µM; in the assay with UACC-62 melanoma it was 0.0851 µM. In addition, the TGI in the assay on UO-31 renal turned out to be 0.173 µM.

Turning to `Cc1cc(-c2nc3ccccc3s2)ccc1N`, the TGI was over 94.5 µM in the assay with A498 renal; over 82.4 µM with CAKI-1 renal; over 100 µM in the assay on DU-145 prostate; over 90.3 µM in the assay on HL-60(TB) leukemia; over 100 µM in the assay with HS 578T breast; over 86 µM in the assay on K-562 leukemia. Besides, the TGI was over 81.2 µM in the assay with KM12 colon; over 84.1 µM in the assay with OVCAR-4 ovarian; over 88.8 µM in the assay on PC-3 prostate; over 100 µM in the assay on SW-620 colon; over 100 µM with UACC-257 melanoma; over 74.3 µM with UACC-62 melanoma. In the assay with UO-31 renal, this compound gave a TGI of 88.3 µM.
